Series [1] deals with T1, KRAS (G12D)::SOS1 (Homo sapiens, UniProt P01116, G12D).
T1 construct: KRAS (G12D) 1-169, N-terminal 6His-tag, C-terminal avi-tag; 6His-tag (N); purchased Xtal BioStructures, Inc. (KRAS); Viva Biotech Ltd (SOS1)
The series can be described thus: KRAS::SOS1 AlphaScreen binding assay, KRAS G12D. To be noted: read-out: KRASG12D IC50. An excerpt:
(§1) This assay can be used to examine the potency with which compounds according to the invention binding to (mutated) KRAS inhibit the protein-protein interaction between SOS1 and (mutated) KRAS e.g., KRAS WT, KRAS G12C, KRAS G12D, KRAS G12V, KRAS G13D. […] Low IC50 values in this assay setting are indicative of strong inhibition of protein-protein interaction between SOS1 and KRAS:
(§2) These assays measure the inhibitory effect of compounds on KRAS mutant protein-protein interactions using the Alpha Screen technology by Perkin Elmer
(§3) The following (mutant) enzyme forms of KRAS and interacting proteins are used in these assays at the given concentrations: • KRAS (G12D) 1-169, N-terminal 6His-tag, C-terminal avi-tag (Xtal BioStructures, Inc.); final assay concentration 10 nM and SOS1 564-1049, N-terminal 229 GST-tag, TEV cleavage site (Viva Biotech Ltd); final assay concentration 5 nM; • KRAS (G12C) 1-169, N-terminal 6His-tag for purification, cleaved off, C-terminal avi-tag, biotinylated, mutations: C51S, C80L, C118S (in house); final assay concentration 7.5 nM and SOS1 564-1049, N-terminal 229 GST-tag, TEV cleavage site (Viva Biotech Ltd); final assay concentration 5 nM; • KRAS (G12V) 1-169, N-terminal 6His-tag for purification, cleaved off, C-terminal avi-tag, biotinylated, TEV cleavage site, mutation: C118S, GDP loaded (in house); final assay concentration 10 nM and SOS1 564-1049, N-terminal 229 GST-tag, TEV cleavage site (Viva Biotech Ltd); final assay concentration 10 nM; • KRAS (G13D) 1-169, N-terminal 6His-tag for purification, cleaved off, C-terminal avi-tag, biotinylated, TEV cleavage site, mutation: C118S, GDP loaded (in house); final assay concentration 10 nM and SOS1 564-1049, N-terminal 229 GST-tag, TEV cleavage site (Viva Biotech Ltd); final assay concentration 10 nM; • KRAS (WT) 1-169, N-terminal 6His-tag for purification, cleaved off, C-terminal avi-tag, biotinylated, TEV cleavage site, mutation: C118S, GDP loaded (in house); final assay concentration 10 nM and SOS1 564-1049, N-terminal 229 GST-tag, TEV cleavage site (Viva Biotech Ltd); final assay concentration 10 nM.
(§4) Test compounds dissolved in DMSO are dispensed onto assay plates (Proxiplate 384 PLUS, white, PerkinElmer; 6008289) using an Access Labcyte Workstation with the Labcyte Echo 55×. For the chosen highest assay concentration of 100 μM, 150 nL of compound solution are transferred from a 10 mM DMSO compound stock solution. A series of eleven fivefold dilutions per compound are transferred to the assay plate, compound dilutions are tested in duplicates. DMSO are added as backfill to a total volume of 150 nL.
(§5) The assays run on a fully automated robotic system in a darkened room below 100 Lux. To 150 nl of compound dilution 10 μl of a mix including KRAS mutant protein, SOS1 (final assay concentrations see above) and GDP nucleotide (Sigma G7127; final assay concentration 10 μM) in assay buffer (1×PBS, 0.1% BSA, 0.05% Tween 20) are added into columns 1-24.
(§6) After 30 minutes incubation time 5 μl of Alpha Screen bead mix in assay buffer are added into columns 1-23. Bead mix consists of AlphaLISA Glutathione Acceptor Beads (PerkinElmer, Cat No AL109) and AlphaScreen Streptavidin Donor Beads (PerkinElmer Cat No 6760002) in assay buffer at a final assay concentration of 10 μg/ml each.
(§7) Plates are kept at room temperature in a darkened incubator. After an additional 60 minutes incubation time the signal is measured in a PerkinElmer Envision HTS Multilabel Reader using the AlphaScreen specs from PerkinElmer.
(§8) Each plate contains up to 16 wells of a negative control depending on the dilution procedure (platewise or serial) (DMSO instead of test compound; with KRAS mutant::SOS1 GDP mix and bead mix; column 23) and 16wells of a positive control (DMSO instead of test compound; with KRAS mutant::SOS1 GDP mix w/o bead mix; column 24).
(§9) As internal control known inhibitors of KRAS mutant::SOS1 interaction can be measured on each compound plate. […]

Series [2] can be described thus: Caco-2 assay. Type of series: in vitro ADME. The conditions noted are these: human, 10 μM test compound, pH 7.4; for Papp A→B at 90 min, 10 μM: Caco-2, apical to basolateral (a-b) permeability, read-out: Caco PappAB; for efflux ratio at 90 min, 10 μM: Caco-2 efflux ratio PappBA/PappAB, read-out: Caco ER. The text has this:
The assay provides information on the potential of a compound to pass the cell membrane, on the extent of oral absorption as well as on whether the compound is actively transported by uptake and/or efflux transporters. Permeability measurements across polarized, confluent Caco-2 cell monolayers grown on permeable filter supports (Corning, catalog #3391) are used. […] The receiver and donor compartments contain 0.25% bovine serum albumine (BSA) in assay buffer. Passive diffusion and/or active transport of compounds across the monolayer is measured in both apical to basolateral (a-b) and basolateral to apical (b-a) direction. a-b permeability (PappAB) represents drug absorption from the intestine into the blood and b-a permeability (PappBA) drug secretion from the blood back into the intestine via both passive permeability as well as active transport mechanisms mediated by efflux and uptake transporters that are expressed on the Caco-2 cells. After a pre-incubation of 25-30 min at 37° C., at predefined time points (0, 30, 60 and 90 min), samples were taken from the receiver and donor compartment, respectively.
Concentrations of test compounds in samples were measured by HPLC/MS/MS, samples from the donor compartment were diluted 1:50 (v:v) with assay buffer, samples from receiver compartment were measured without dilution.
Apparent permeabilities in a-b (PappAB) and b-a (PappBA) directions are calculated according to the formula:
[formula] • Vrec [mL]: buffer volume in receiver compartment • Cdon [pmol/mL]: concentration of test compound in donor compartment at t=0 • ΔCrec: difference between concentrations of test compound in receiver compartment at start and end of incubation time • Δt: Incubation time • Vrec·ΔCrec/Δt [[…]]: Amount of compound transferred to receiver compartment per time • A [cm^2]: filter surface
Caco-2 efflux ratios (ER) are calculated as the ratio of PappBA/PappAB.
(In general: Caco-2 cells form a polarised layer with tight junctions and transporters.)

The target in series [3] is T2, KRAS (G12V)::SOS1 (Homo sapiens, UniProt P01116, C118S/G12V).
T2 construct: KRAS (G12V) 1-169, N-terminal 6His-tag for purification, cleaved off; 6His-tag (N, cleaved yes); TEV cleavage site; made in house
The series can be described thus: KRAS::SOS1 AlphaScreen binding assay, KRAS G12V.
Text: as §1, §2, §3, §4, §5, §6, §7, §8, §9
(In general: In Alpha technology, singlet oxygen from a donor bead excites a nearby acceptor bead.)

The values that follow come from patent US20250129095A1, “ANNULATED 2-AMINO-3-CYANO THIOPHENES AND DERIVATIVES FOR THE TREATMENT OF CANCER” (Boehringer Ingelheim Int'l GmbH Corp., priority 2021, published 2025).

Structures are written as SMILES.

T1 sequence (P01116 1-169 isoform P01116-2 G12D): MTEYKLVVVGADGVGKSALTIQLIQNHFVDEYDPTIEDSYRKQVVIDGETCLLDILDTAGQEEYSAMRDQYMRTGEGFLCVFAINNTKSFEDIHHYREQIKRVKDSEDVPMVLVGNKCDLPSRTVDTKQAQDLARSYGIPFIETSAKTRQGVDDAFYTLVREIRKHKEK
T2 sequence (P01116 1-169 isoform P01116-2 G12V/C118S): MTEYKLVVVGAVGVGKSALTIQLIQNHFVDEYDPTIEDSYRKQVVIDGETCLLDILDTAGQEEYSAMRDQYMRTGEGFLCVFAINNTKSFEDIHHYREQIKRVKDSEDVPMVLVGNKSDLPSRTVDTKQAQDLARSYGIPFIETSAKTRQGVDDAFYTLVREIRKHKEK

As a reminder, the IC50 is the midpoint of a concentration-inhibition curve. Regarding `C[C@H](Oc1cc(N(C)CCN(C)C)nc(-c2noc3c2CCC[C@@]32CCCc3sc(N)c(C#N)c32)n1)[C@@H]1CCCN1C` [II-20], in series [1], the half-inhibitory concentration (IC50) was found to be 2 nM. In addition, in series [2], the Papp A→B at 90 min, 10 μM came out at 0.8 ×10⁻⁶ cm/s and the efflux ratio at 90 min, 10 μM worked out at 38.
The like results for `C[C@H](Oc1cc(Oc2cncnc2)nc(-c2noc3c2CCC[C@@]32CCCc3sc(N)c(C#N)c32)n1)[C@@H]1CCCN1C` [II-1] were, in that order, 1 nM, 17 ×10⁻⁶ cm/s and 1.5.
As for `C[C@H](Oc1cc(Nc2cnccn2)nc(-c2noc3c2CCC[C@@]32CCCc3sc(N)c(C#N)c32)n1)[C@@H]1CCCN1C` [II-14], the IC50 in series [3] and in series [1] was 3 nM in each case.
Consider `C[C@H](Oc1cc(Nc2cccnn2)nc(-c2noc3c2CCC[C@@]32CCCc3sc(N)c(C#N)c32)n1)[C@@H]1CCCN1C` [II-18], for which the IC50 in series [1] was found to be 2 nM. Besides, in series [2], the Papp A→B at 90 min, 10 μM was 1.4 ×10⁻⁶ cm/s and the efflux ratio at 90 min, 10 μM is 17.9.
Turning to `C[C@H](Oc1cc(Nc2ccccn2)nc(-c2onc3c2CCC[C@@]32CCCc3sc(N)c(C#N)c32)n1)[C@@H]1CCCN1C` [Example I-6], the IC50 in series [1] was 4 nM. In series [2], the efflux ratio at 90 min, 10 μM came out at 2.5.
In the case of `C[C@H](Oc1cc(Oc2cncnc2)nc(-c2onc3c2CCC[C@@]32CCCc3sc(N)c(C#N)c32)n1)[C@@H]1CCCN1C` [Example I-3], the IC50 in series [1] was found to be 1 nM. In series [2], the Papp A→B at 90 min, 10 μM came to 18 ×10⁻⁶ cm/s and the efflux ratio at 90 min, 10 μM was determined as 1.3.
With `C[C@H](Oc1cc(OCC2(N(C)C)CC2)nc(-c2noc3c2CCC[C@@]32CCCc3sc(N)c(C#N)c32)n1)[C@@H]1CCCN1C` [II-21], the IC50 in series [1] worked out at 1 nM. Further, in series [2], the efflux ratio at 90 min, 10 μM turned out to be 1.4.
With `C[C@H](Oc1cc(NCC2COC2)nc(-c2noc3c2CCC[C@@]32CCCc3sc(N)c(C#N)c32)n1)[C@@H]1CCCN1C` [II-11], the IC50 in series [1] worked out at 1 nM.
Regarding `C[C@H](Oc1cc(Oc2ccon2)nc(-c2noc3c2CCC[C@@]32CCCc3sc(N)c(C#N)c32)n1)[C@@H]1CCCN1C` [II-3], the IC50 in series [1] was found to be 2 nM.
Take `C[C@H](Oc1cc(Nc2ccccn2)nc(-c2noc3c2CCC[C@@]32CCCc3sc(N)c(C#N)c32)n1)[C@@H]1CCCN1C` [II-16]: the IC50 in series [1] came to 3 nM. Besides, the efflux ratio at 90 min, 10 μM in series [2] worked out at 3.1.
In the case of `C[C@H](Oc1cc(O[C@H]2CNC(C)(C)C2)nc(-c2noc3c2CCC[C@@]32CCCc3sc(N)c(C#N)c32)n1)[C@@H]1CCCN1C` (single isomer, unassigned) [II-8], the IC50 in series [3] was 10 nM; in series [1], 1 nM.
Regarding `C[C@H](Oc1cc(Nc2ccncn2)nc(-c2noc3c2CCC[C@@]32CCCc3sc(N)c(C#N)c32)n1)[C@@H]1CCCN1C` [II-15], the IC50 in series [1] amounted to 3 nM. Further, in series [2], the Papp A→B at 90 min, 10 μM turned out to be 2 ×10⁻⁶ cm/s and the efflux ratio at 90 min, 10 μM came to 14.5.
As to `C[C@H](Oc1cc(O[C@H]2CN(C)C(C)(C)C2)nc(-c2noc3c2CCC[C@@]32CCCc3sc(N)c(C#N)c32)n1)[C@@H]1CCCN1C` [II-19], the IC50 in series [1] turned out to be 1 nM.
Consider `C[C@H](Oc1cc(Oc2cnccn2)nc(-c2noc3c2CCC[C@@]32CCCc3sc(N)c(C#N)c32)n1)[C@@H]1CCCN1C` [II-7], for which the IC50 in series [1] amounted to 1 nM.
On the same count and under the same terms, under `C[C@H]1CN(C)CCCN1c1cc(O[C@@H]2CNC2(C)C)nc(-c2noc3c2CCC[C@@]32CCCc3sc(N)c(C#N)c32)n1` [II-28] stands 1 nM.
Regarding `C[C@H](Oc1cc(Oc2nccs2)nc(-c2noc3c2CCC[C@@]32CCCc3sc(N)c(C#N)c32)n1)[C@@H]1CCCN1C` [II-2], the IC50 in series [1] turned out to be 2 nM. In addition, the efflux ratio at 90 min, 10 μM in series [2] amounted to 0.5.
As to `C[C@H](Oc1cc(O[C@H]2CCOC2)nc(-c2noc3c2CCC[C@@]32CCCc3sc(N)c(C#N)c32)n1)[C@@H]1CCCN1C` [II-4], the IC50 in series [1] worked out at 2 nM. For the same molecule, in series [2], the Papp A→B at 90 min, 10 μM is 8.6 ×10⁻⁶ cm/s and the efflux ratio at 90 min, 10 μM was 3.7.
`C[C@H](Oc1cc(Nc2nccs2)nc(-c2noc3c2CCC[C@@]32CCCc3sc(N)c(C#N)c32)n1)[C@@H]1CCCN1C` [II-12]: in series [1], the IC50 stood at 6 nM.
For `COCCOc1cc(O[C@@H](C)[C@@H]2CCCN2C)nc(-c2noc3c2CCC[C@@]32CCCc3sc(N)c(C#N)c32)n1` [II-5], in series [1], the IC50 was determined as 1 nM. In series [2], the Papp A→B at 90 min, 10 μM was determined as 14 ×10⁻⁶ cm/s and the efflux ratio at 90 min, 10 μM was 1.4.
Consider `C[C@H](Oc1cc(N[C@H]2CCOC2)nc(-c2onc3c2CCC[C@@]32CCCc3sc(N)c(C#N)c32)n1)[C@@H]1CCCN1C` [Example I-4], for which the IC50 in series [1] was 4 nM.
On to `COC[C@H](C)Nc1cc(O[C@@H](C)[C@@H]2CCCN2C)nc(-c2onc3c2CCC[C@@]32CCCc3sc(N)c(C#N)c32)n1` [Example I-5], for which, in series [1], the IC50 was determined as 12 nM. Also, in series [2], the Papp A→B at 90 min, 10 μM was found to be 4.3 ×10⁻⁶ cm/s and the efflux ratio at 90 min, 10 μM was found to be 7.7.
Take `C[C@H](Oc1cc(Sc2ncccn2)nc(-c2onc3c2CCC[C@@]32CCCc3sc(N)c(C#N)c32)n1)[C@@H]1CCCN1C` [Example I-7]: the IC50 in series [1] worked out at 6 nM.
Regarding `C[C@H](Oc1cc(OCCO)nc(-c2noc3c2CCC[C@@]32CCCc3sc(N)c(C#N)c32)n1)[C@@H]1CCCN1C` [II-6], the IC50 in series [1] was found to be 1 nM. Moreover, in series [2], the Papp A→B at 90 min, 10 μM worked out at 1.2 ×10⁻⁶ cm/s and the efflux ratio at 90 min, 10 μM amounted to 20.8.
The like results for `C[C@H](Oc1cc(N(C)C)nc(-c2noc3c2CCC[C@@]32CCCc3sc(N)c(C#N)c32)n1)[C@@H]1CCCN1C` [II-10] were, in that order, 2 nM, 7.6 ×10⁻⁶ cm/s and 3.
